This data set is described as follows: Elimination half life in dog at 0.85 mg/kg, iv measured up to 4 hrs post dose. The conditions noted are these: in vivo, read-out: beta t1/2 (converted). It is filed as ADME, organism-based, Canis lupus familiaris.

As for `CC1=CCC[C@H]1NC(=O)Nc1ccc(Cl)c(S(=O)(=O)[C@@]2(C)CCOC2)c1O`, the half-life was 3.6 h.

(Values after ChEMBL document CHEMBL4033786, “Discovery of Novel 1-Cyclopentenyl-3-phenylureas as Selective, Brain Penetrant, and Orally Bioavailable CXCR2 Antagonists” (J Med Chem, 2018).)
